# Reference: patent US20230017045A1, “PYRIDINE AND PYRIMIDINE CARBOXYLATE HERBICIDES AND METHODS OF USE THEREOF” (Dow AgroSciences LLC, priority 2017, published 2023)
# System: test plant species
# Assay: Post-emergent herbicidal activity test (greenhouse, foliar spray, visual growth reduction)
# Assay type: in vivo
# Details: post-emergence, 336 h, ALOMY: blackgrass (Alopecurus myosuroides), 140 g ai/ha, 14 days after application, read-out: Visual Growth Reduction (%) 14 Days After Application, ALOMY
# How it was run: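 Plants grown in greenhouse (15 h photoperiod, 23-29° C day/22-28° C night) to first or second true leaf stage were sprayed overhead with compound in acetone/water/isopropanol/DMSO/crop oil/X-77 carrier at 187 L/ha. Injury was scored visually after 14 d on a 0-100% scale versus solvent-blank and untreated controls.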
row,Structure (SMILES),pest or weed control at 140 g/ha [%]
1,"COC(=O)c1nc(-c2ccc(SC(F)(F)F)cc2Cl)c(Cl)cc1Cl [F130, Methyl 3,5-dichloro-6-(2-chloro-4-((trifluoromethyl)thio)phenyl) picolinate]",0 to 29
2,"COC(=O)c1nc(-c2ccc(C=O)cc2Cl)ccc1Cl [F22, methyl 3-chloro-6-(2-chloro-4-formylphenyl)picolinate]",0 to 29

# Same assay, conditions: post-emergence, 336 h, AMARE: redroot pigweed (Amaranthus retroflexus), 140 g ai/ha, 14 days after application, read-out: Visual Growth Reduction (%) 14 Days After Application, AMARE
row,Structure (SMILES),pest or weed control at 140 g/ha [%]
1,"COC(=O)c1nc(-c2ccc(SC(F)(F)F)cc2Cl)c(Cl)cc1Cl [F130, Methyl 3,5-dichloro-6-(2-chloro-4-((trifluoromethyl)thio)phenyl) picolinate]",85 to 94
2,"COC(=O)c1nc(-c2ccc(C=O)cc2Cl)ccc1Cl [F22, methyl 3-chloro-6-(2-chloro-4-formylphenyl)picolinate]",0 to 29

# Same assay, conditions: post-emergence, 336 h, AVEFA: wild oat (Avena fatua), 140 g ai/ha, 14 days after application, read-out: Visual Growth Reduction (%) 14 Days After Application, AVEFA
row,Structure (SMILES),pest or weed control at 140 g/ha [%]
1,"COC(=O)c1nc(-c2ccc(SC(F)(F)F)cc2Cl)c(Cl)cc1Cl [F130, Methyl 3,5-dichloro-6-(2-chloro-4-((trifluoromethyl)thio)phenyl) picolinate]",0 to 29
2,"COC(=O)c1nc(-c2ccc(C=O)cc2Cl)ccc1Cl [F22, methyl 3-chloro-6-(2-chloro-4-formylphenyl)picolinate]",0 to 29

# Same assay, conditions: post-emergence, 336 h, CHEAL: lambsquarters (Chenopodium album), 140 g ai/ha, 14 days after application, read-out: Visual Growth Reduction (%) 14 Days After Application, CHEAL
row,Structure (SMILES),pest or weed control at 140 g/ha [%]
1,"COC(=O)c1nc(-c2ccc(SC(F)(F)F)cc2Cl)c(Cl)cc1Cl [F130, Methyl 3,5-dichloro-6-(2-chloro-4-((trifluoromethyl)thio)phenyl) picolinate]",75 to 84
2,"COC(=O)c1nc(-c2ccc(C=O)cc2Cl)ccc1Cl [F22, methyl 3-chloro-6-(2-chloro-4-formylphenyl)picolinate]",0 to 29

# Same assay, conditions: post-emergence, 336 h, CIRAR: canada thistle (Cirsium arvense), 140 g ai/ha, 14 days after application, read-out: Visual Growth Reduction (%) 14 Days After Application, CIRAR
row,Structure (SMILES),pest or weed control at 140 g/ha [%]
1,"COC(=O)c1nc(-c2ccc(SC(F)(F)F)cc2Cl)c(Cl)cc1Cl [F130, Methyl 3,5-dichloro-6-(2-chloro-4-((trifluoromethyl)thio)phenyl) picolinate]",75 to 84
2,"COC(=O)c1nc(-c2ccc(C=O)cc2Cl)ccc1Cl [F22, methyl 3-chloro-6-(2-chloro-4-formylphenyl)picolinate]",0 to 29

# Same assay, conditions: post-emergence, 336 h, CYPES: yellow nutsedge (Cyperus esculentus), 140 g ai/ha, 14 days after application, read-out: Visual Growth Reduction (%) 14 Days After Application, CYPES
row,Structure (SMILES),pest or weed control at 140 g/ha [%]
1,"COC(=O)c1nc(-c2ccc(SC(F)(F)F)cc2Cl)c(Cl)cc1Cl [F130, Methyl 3,5-dichloro-6-(2-chloro-4-((trifluoromethyl)thio)phenyl) picolinate]",0 to 29
2,"COC(=O)c1nc(-c2ccc(C=O)cc2Cl)ccc1Cl [F22, methyl 3-chloro-6-(2-chloro-4-formylphenyl)picolinate]",0 to 29

# Same assay, conditions: post-emergence, 336 h, DIGSA: crabgrass (Digitaria sanguinalis), 140 g ai/ha, 14 days after application, read-out: Visual Growth Reduction (%) 14 Days After Application, DIGSA
row,Structure (SMILES),pest or weed control at 140 g/ha [%]
1,"COC(=O)c1nc(-c2ccc(SC(F)(F)F)cc2Cl)c(Cl)cc1Cl [F130, Methyl 3,5-dichloro-6-(2-chloro-4-((trifluoromethyl)thio)phenyl) picolinate]",60 to 74
2,"COC(=O)c1nc(-c2ccc(C=O)cc2Cl)ccc1Cl [F22, methyl 3-chloro-6-(2-chloro-4-formylphenyl)picolinate]",0 to 29

# Same assay, conditions: post-emergence, 336 h, ECHCG: barnyardgrass (Echinochloa crus-galli), 140 g ai/ha, 14 days after application, read-out: Visual Growth Reduction (%) 14 Days After Application, ECHCG
row,Structure (SMILES),pest or weed control at 140 g/ha [%]
1,"COC(=O)c1nc(-c2ccc(SC(F)(F)F)cc2Cl)c(Cl)cc1Cl [F130, Methyl 3,5-dichloro-6-(2-chloro-4-((trifluoromethyl)thio)phenyl) picolinate]",0 to 29
2,"COC(=O)c1nc(-c2ccc(C=O)cc2Cl)ccc1Cl [F22, methyl 3-chloro-6-(2-chloro-4-formylphenyl)picolinate]",0 to 29

# Same assay, conditions: post-emergence, 336 h, IPOHE: ivy-leaf morning glory (Ipomoea hederacea), 140 g ai/ha, 14 days after application, read-out: Visual Growth Reduction (%) 14 Days After Application, IPOHE
row,Structure (SMILES),pest or weed control at 140 g/ha [%]
1,"COC(=O)c1nc(-c2ccc(SC(F)(F)F)cc2Cl)c(Cl)cc1Cl [F130, Methyl 3,5-dichloro-6-(2-chloro-4-((trifluoromethyl)thio)phenyl) picolinate]",30 to 44
2,"COC(=O)c1nc(-c2ccc(C=O)cc2Cl)ccc1Cl [F22, methyl 3-chloro-6-(2-chloro-4-formylphenyl)picolinate]",0 to 29

# Same assay, conditions: post-emergence, 336 h, KCHSC: kochia (Bassia scoparia), 140 g ai/ha, 14 days after application, read-out: Visual Growth Reduction (%) 14 Days After Application, KCHSC
row,Structure (SMILES),pest or weed control at 140 g/ha [%]
1,"COC(=O)c1nc(-c2ccc(SC(F)(F)F)cc2Cl)c(Cl)cc1Cl [F130, Methyl 3,5-dichloro-6-(2-chloro-4-((trifluoromethyl)thio)phenyl) picolinate]",60 to 74
2,"COC(=O)c1nc(-c2ccc(C=O)cc2Cl)ccc1Cl [F22, methyl 3-chloro-6-(2-chloro-4-formylphenyl)picolinate]",0 to 29

# Same assay, conditions: post-emergence, 336 h, ORYSA: rice (Oryza sativa), 140 g ai/ha, 14 days after application, read-out: Visual Growth Reduction (%) 14 Days After Application, ORYSA
row,Structure (SMILES),pest or weed control at 140 g/ha [%]
1,"COC(=O)c1nc(-c2ccc(SC(F)(F)F)cc2Cl)c(Cl)cc1Cl [F130, Methyl 3,5-dichloro-6-(2-chloro-4-((trifluoromethyl)thio)phenyl) picolinate]",0 to 29
2,"COC(=O)c1nc(-c2ccc(C=O)cc2Cl)ccc1Cl [F22, methyl 3-chloro-6-(2-chloro-4-formylphenyl)picolinate]",0 to 29

# Same assay, conditions: post-emergence, 336 h, SETFA: giant foxtail (Setaria faberi), 140 g ai/ha, 14 days after application, read-out: Visual Growth Reduction (%) 14 Days After Application, SETFA
row,Structure (SMILES),pest or weed control at 140 g/ha [%]
1,"COC(=O)c1nc(-c2ccc(SC(F)(F)F)cc2Cl)c(Cl)cc1Cl [F130, Methyl 3,5-dichloro-6-(2-chloro-4-((trifluoromethyl)thio)phenyl) picolinate]",60 to 74
2,"COC(=O)c1nc(-c2ccc(C=O)cc2Cl)ccc1Cl [F22, methyl 3-chloro-6-(2-chloro-4-formylphenyl)picolinate]",0 to 29

# Same assay, conditions: post-emergence, 336 h, SORVU: grain sorghum (Sorghum vulgare), 140 g ai/ha, 14 days after application, read-out: Visual Growth Reduction (%) 14 Days After Application, SORVU
row,Structure (SMILES),pest or weed control at 140 g/ha [%]
1,"COC(=O)c1nc(-c2ccc(SC(F)(F)F)cc2Cl)c(Cl)cc1Cl [F130, Methyl 3,5-dichloro-6-(2-chloro-4-((trifluoromethyl)thio)phenyl) picolinate]",30 to 44
2,"COC(=O)c1nc(-c2ccc(C=O)cc2Cl)ccc1Cl [F22, methyl 3-chloro-6-(2-chloro-4-formylphenyl)picolinate]",0 to 29

# Same assay, conditions: post-emergence, 336 h, STEME: common chickweed (Stellaria media), 140 g ai/ha, 14 days after application, read-out: Visual Growth Reduction (%) 14 Days After Application, STEME
row,Structure (SMILES),pest or weed control at 140 g/ha [%]
1,"COC(=O)c1nc(-c2ccc(SC(F)(F)F)cc2Cl)c(Cl)cc1Cl [F130, Methyl 3,5-dichloro-6-(2-chloro-4-((trifluoromethyl)thio)phenyl) picolinate]",0 to 29
2,"COC(=O)c1nc(-c2ccc(C=O)cc2Cl)ccc1Cl [F22, methyl 3-chloro-6-(2-chloro-4-formylphenyl)picolinate]",0 to 29

# Same assay, conditions: post-emergence, 336 h, TRZAS: wheat, spring (Triticum aestivum), 140 g ai/ha, 14 days after application, read-out: Visual Growth Reduction (%) 14 Days After Application, TRZAS
row,Structure (SMILES),pest or weed control at 140 g/ha [%]
1,"COC(=O)c1nc(-c2ccc(SC(F)(F)F)cc2Cl)c(Cl)cc1Cl [F130, Methyl 3,5-dichloro-6-(2-chloro-4-((trifluoromethyl)thio)phenyl) picolinate]",0 to 29
2,"COC(=O)c1nc(-c2ccc(C=O)cc2Cl)ccc1Cl [F22, methyl 3-chloro-6-(2-chloro-4-formylphenyl)picolinate]",0 to 29
